Reference: patent publication US10058587B2, “Peptide composition for cancer treatment by inhibiting TRPV6 calcium channel activity” (priority 2008, dated 2018)
Where no end group is shown, it is not given here.

Key:
[1] = molecular target: T1, human TRPV6b (Homo sapiens, UniProt Q9H1D0); test: Whole-cell patch clamp of calcium store operated current (ISOC) through TRPV6 in transfected LnCaP cells; assay type: cell-based
T1 construct: expressed in transfected cells; host or cells: LnCaP (ATCC CRL-1740), human lymph node prostate cancer cells
T1 sequence (Q9H1D0 41-765 limits assumed): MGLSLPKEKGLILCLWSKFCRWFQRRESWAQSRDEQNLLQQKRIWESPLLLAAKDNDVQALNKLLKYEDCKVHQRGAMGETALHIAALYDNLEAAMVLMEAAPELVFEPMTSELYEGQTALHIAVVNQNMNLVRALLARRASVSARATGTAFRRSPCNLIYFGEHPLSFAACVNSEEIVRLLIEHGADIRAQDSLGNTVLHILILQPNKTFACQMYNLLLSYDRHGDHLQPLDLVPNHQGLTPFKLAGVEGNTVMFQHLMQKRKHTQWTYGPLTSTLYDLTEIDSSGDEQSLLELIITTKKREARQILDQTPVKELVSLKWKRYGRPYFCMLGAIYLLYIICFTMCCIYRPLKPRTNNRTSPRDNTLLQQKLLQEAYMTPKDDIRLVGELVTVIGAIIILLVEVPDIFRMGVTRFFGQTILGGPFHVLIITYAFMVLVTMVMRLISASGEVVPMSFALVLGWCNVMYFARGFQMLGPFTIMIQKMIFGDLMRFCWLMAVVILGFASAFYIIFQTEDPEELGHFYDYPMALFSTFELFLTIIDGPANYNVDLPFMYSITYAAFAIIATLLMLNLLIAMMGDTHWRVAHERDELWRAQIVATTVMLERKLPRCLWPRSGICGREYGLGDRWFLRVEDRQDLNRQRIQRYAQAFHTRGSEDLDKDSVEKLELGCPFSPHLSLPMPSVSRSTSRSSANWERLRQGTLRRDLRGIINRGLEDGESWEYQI
Method: An expression vector (pCAGS-IRES-hTRPV6b) (Bodding et al. 2003) containing the nucleotide code for human TRPV6b was transfected into and expressed by human lymph node prostate cancer (LnCaP, ATCC CRL-1740). Patch clamping with whole-cell current acquisition was used to measure the calcium current through this channel. Cells were treated and calcium store operated current (ISOC) was measured with either SorC13 (n=90) or SorC27 (n=30) in a closed-circuit perfusion for 3 min at each of cumulative concentrations of 0 (baseline), 100 nM, 500 nM 1 uM, 30 uM and 100 uM. Washout perfusion was done at 2 mL/min for 3 min. […] Further, both C-peptides are very strong inhibitors of calcium current through the TRPV6 channel with inhibition constants in the 100 nM range.

[2] = tested on: T47D breast cancer xenografts; test: T-47D breast cancer xenograft, SorC13 with Paclitaxel (Example 27); assay type: in vivo, NOD/SCID mice; conditions: for % ΔT/ΔC (tumor volume normalized to control) / Mean tumour volume: alone or with SorC13; for Mean tumour volume: after 12-day rest post-treatment; for Mean tumor volume: day 12 of treatment, alone or with SorC13 300 mg/kg
Method: Tumor volumes (V) were calculated by caliper measurement using standard measurements of the width (W), length (L) and thickness (T) of tumors. Animals were randomized into treatment groups so that the median tumor volumes of each group were similar at the start of dosing. Percentage ΔT/ΔC values, as a measure of efficacy, were determined where ΔC refers to change in volume of control or untreated tumor, and ΔT refers to change in volume of treated tumor.
Animals were intraperitoneally (i.p.) injected with the vehicular control, or the low, medium or high doses of CAT or CAT and SorC13. Mice received low medium or high doses of CAT or CAT and SorC13 by i.p. injection every day for 12 days or CAT injections as set out in Table 10. Paclitaxel was injected first, followed by carboplatin 30 minutes later and then SorC13. The tumor volume and body weights were measured every day. As well, general health of the animals was monitored every day.
The human […] breast cancer cell line T-47D (ATCC #HTB-133), was cultured in growth media prepared with ATCC complete growth medium. The base medium for the T-47D cell line is ATCC-formulated RPMI-1640 Medium. The complete growth medium is supplemented with 0.2 Units/ml bovine insulin and fetal bovine serum to a final concentration of 10% (v/v). Cells were cultured at 37° C. in an atmosphere of 95% air and 5% carbon dioxide with sub-culturing done according to ATCC guidelines.
The cell preparation, formulation, implantation, measurement and treatment procedures were otherwise as described in Example 26 and Table 10 but with Paclitaxel at low (6 mg/kg), medium (10 mg/kg) and high (16 mg/kg) doses.

[3] = Tissue distribution of Cy5.5-labeled peptides by optical imaging; assay type: in vivo, CD1 mice; conditions: four hours after i.v. injection of 100 ug
From the text: SorC13 and SorC27 were labeled with the near-infrared probe, Cy5.5. SorC13 was labeled at lysine-1 and lysine-8 with the infrared fluorescent probe cy5.5 through reaction with Cy5.5 NHS ester-activated process. SorC27 was labeled at the single cysteine thiol with Cy5.5 maleamide-activated reaction. The labeled peptides were purified with a combination of size exclusion chromatography and HPLC. The label, Cy5.5, fluoresces in the infra-red region after excitation with a scanning laser. The low energy laser is able to penetrate the animal to about 1 cm and, thus, by scanning prone and supine positions, the presence of the tagged peptides can be quantified in three dimensions.
Cy5.5-labeled peptides were intravenously injected into CD1 mice (4 for each compound) at 100 ug per animal in 100 uL, and animals were imaged live using an optical imaging system, Optix eXplorer (GE Healthcare Systems) at different time points (30 min, 90 min, 4 h). […] The bio-distribution of the labeled peptides in different organs and tissues were visualized and relatively quantified by optical imaging analysis. This protocol allows for visualization of the location of the labeled peptides and how the location changes over time. […] Nodes that accumulated the labeled peptides are indicated by line 1 (superfacial cervical nodes), line 4 (axillary nodes), line 5 (brachial nodes), line 8 (mesenteric nodes) and line 9 (inguinal nodes). FIGS. 8, 9 and 10 show the amounts of labeled peptides in various organs ex vivo.

For `C#CCN1C(C)=C(C(=O)OC)C(c2cccc([N+](=O)[O-])c2)C(C(=O)OCC)=C1C` (stereo not drawn) [MRS-1845, N-propargylnitrendipene, reference compound], the “inhibition of the calcium current” value ([1]; positive control at 5 uM) was “demonstrated inhibition of the calcium current”.
In the case of `CC(=O)O[C@H]1C(=O)[C@@]2(C)[C@H]([C@H](OC(=O)c3ccccc3)[C@]3(O)C[C@H](OC(=O)[C@H](O)[C@@H](NC(=O)c4ccccc4)c4ccccc4)C(C)=C1C3(C)C)[C@]1(OC(C)=O)CO[C@@H]1C[C@@H]2O` [Paclitaxel], the “% ΔT/ΔC (tumor volume normalized to control)” value ([2]; Day 6, high Paclitaxel (16 mg/kg)) is reported as 17.8%, the “% ΔT/ΔC (tumor volume normalized to control)” value ([2]; Day 6, low Paclitaxel (6 mg/kg)) is reported as 26.0% and the “% ΔT/ΔC (tumor volume normalized to control)” value ([2]; Day 6, medium Paclitaxel (10 mg/kg)) is reported as −4.0%. The “% ΔT/ΔC (tumor volume normalized to control)” value ([2]; Day 12, high Paclitaxel (16 mg/kg)) was −96.4%, the “% ΔT/ΔC (tumor volume normalized to control)” value ([2]; Day 12, low Paclitaxel (6 mg/kg)) was 16.3% and the “% ΔT/ΔC (tumor volume normalized to control)” value ([2]; Day 12, medium Paclitaxel (10 mg/kg)) was −45.9%. For the same compound, the “% ΔT/ΔC (tumor volume normalized to control)” value ([2]; Day 18 (rest period), high Paclitaxel) was −112.4%, the “% ΔT/ΔC (tumor volume normalized to control)” value ([2]; Day 18 (rest period), low Paclitaxel) was 46.0% and the “% ΔT/ΔC (tumor volume normalized to control)” value ([2]; Day 18 (rest period), medium Paclitaxel) was −56.9%. The “% ΔT/ΔC (tumor volume normalized to control)” value ([2]; Day 24 (rest period), high Paclitaxel) was −88.4%, the “% ΔT/ΔC (tumor volume normalized to control)” value ([2]; Day 24 (rest period), low Paclitaxel) was 33.3% and the “% ΔT/ΔC (tumor volume normalized to control)” value ([2]; Day 24 (rest period), medium Paclitaxel) was −33.2%. The Mean tumour volume ([2]; high Paclitaxel (16 mg/kg)) was 20.24 mm^3, the Mean tumour volume ([2]; low Paclitaxel (6 mg/kg)) was 52.08 mm^3 and the Mean tumour volume ([2]; medium Paclitaxel (10 mg/kg)) was 35.52 mm^3. It also gave a Mean tumor volume ([2]; high Paclitaxel (16 mg/kg)) of 26.47 mm^3, a Mean tumor volume ([2]; low Paclitaxel (6 mg/kg)) of 46.37 mm^3 and a Mean tumor volume ([2]; medium Paclitaxel (10 mg/kg)) of 36.23 mm^3.
With HPSKVDLPR [SorC9, HPSKVDLPR] the Kd [1] was ~90 nM.
In the case of “SorC27-Cy5.5: SorC27 labeled at the single cysteine thiol with Cy5.5 (EGKLSSNDTEGGLC(Cy5.5)KEFLHPSKVDLPR)”, the “accumulation at lymph nodes (superfacial cervical, axillary, branchial, mesenteric, inguinal)” value [3] is reported as “Significant accumulation”.
